Test [1] is filed under the species Homo sapiens. Description: Compound was testd for inhibition of glucose transport human erythrocytes using [H]-forskolin as radioligand. The format is functional, organism-based.
The species entered for test [2] is Homo sapiens. Description: Compound was testd for inhibition of glucose transport human platelets using [H]-forskolin as radioligand. In kind it is functional, organism-based.
Test [3] is filed under the species Rattus norvegicus. Description: Compound was tested for inhibition of glucose transport in adipocytes plasma membrane vesicles using [H]-forskolin as radioligand. In kind it is functional.
The species named for test [4] is Rattus norvegicus. Description: Compound was tested for inhibition of glucose transport in rat adipocyte. In kind it is functional, organism-based.

What is called EC50 is the concentration needed to bring the measured effect to its halfway point. A low value points to greater potency. Turning to `C=C[C@@]1(C)CC(=O)[C@]2(O)[C@@]3(C)[C@@H](O)CCC(C)(C)[C@@H]3[C@H](O)[C@H](OC(C)=O)[C@@]2(C)O1` [COLFORSIN], the concentration for a half-maximal effect (EC50) in the test listed under Homo sapiens [1], in the test listed under Homo sapiens [2] and in the test listed under Rattus norvegicus [3] was 0.24 µM throughout. By Ki is commonly meant a measure of affinity in units of concentration, obtained from inhibition or displacement. `CC(=O)O[C@@H]1[C@@H](O)[C@H](O)[C@@H](CO)O[C@@H]1O` showed a Ki in the test listed under Rattus norvegicus [4] of 8500 µM. In the case of `C=C[C@@]1(C)CC(=O)[C@]2(O)[C@@]3(C)[C@@H](O)CCC(C)(C)[C@@H]3[C@H](O)[C@H](O)[C@@]2(C)O1`, in the test listed under Rattus norvegicus [3], the EC50 was 7.1 µM.

The record behind these values is ChEMBL document CHEMBL1131766, “On the analogy between forskolin and D-glucose” (Bioorg Med Chem Lett, 1999).
